In PubChem BioAssay AID330 (DTP/NCI, 2004):
“And” between values parts separate entries of the source, which are not always exact repeats. Identical values can stand only once. Toxic doses and inconclusive results are not listed.

System: P388 leukemia ip, CD2F1 mice, survival T/C
Experiment: NCI In Vivo Anticancer Drug Screen. Data for tumor model P388 Leukemia (intraperitoneal) in CD2F1 (CDF1) mice
Conditions: endpoint: median survival time, higher = longer survival
Procedure, shortened: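 Mice carrying the transplanted tumor received test compound or vehicle. Survival was recorded in each group, and the value is the treated-group measurement divided by that of the vehicle-treated control group.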

[1] = dose: 100.0 mg/kg/injection, schedule: Q01DX009 (ip), vehicle: saline with Tween-80
[2] = dose: 100.0 mg/kg/injection, schedule: Q04DX003 (ip), vehicle: saline with Tween-80
[3] = dose: 200.0 mg/kg/injection, schedule: Q01DX009 (ip), vehicle: saline with Tween-80
[4] = dose: 100.0 mg/kg/injection, schedule: Q01DX001 (ip), vehicle: saline with Tween-80
[5] = dose: 200.0 mg/kg/injection, schedule: Q01DX001 (ip), vehicle: saline with Tween-80
[6] = dose: 400.0 mg/kg/injection, schedule: Q01DX001 (ip), vehicle: saline with Tween-80
[7] = dose: 50.0 mg/kg/injection, schedule: Q01DX005 (ip), vehicle: saline with Tween-80
[8] = dose: 100.0 mg/kg/injection, schedule: Q01DX005 (ip), vehicle: saline with Tween-80
[9] = dose: 200.0 mg/kg/injection, schedule: Q01DX005 (ip), vehicle: saline with Tween-80
[10] = dose: 50.0 mg/kg/injection, schedule: Q01DX009 (ip), vehicle: saline with Tween-80
[11] = dose: 50.0 mg/kg/injection, schedule: Q01DX005 (ip), vehicle: Klucel (hydroxypropylcellulose) (HPC)
[12] = dose: 100.0 mg/kg/injection, schedule: Q01DX005 (ip), vehicle: Klucel (hydroxypropylcellulose) (HPC)
[13] = dose: 200.0 mg/kg/injection, schedule: Q01DX005 (ip), vehicle: Klucel (hydroxypropylcellulose) (HPC)
[14] = dose: 60.0 mg/kg/injection, schedule: Q01DX005 (ip), vehicle: saline with Tween-80
[15] = dose: 120.0 mg/kg/injection, schedule: Q01DX005 (ip), vehicle: saline with Tween-80
[16] = dose: 240.0 mg/kg/injection, schedule: Q01DX005 (ip), vehicle: saline with Tween-80
[17] = dose: 25.0 mg/kg/injection, schedule: Q01DX009 (ip), vehicle: saline with Tween-80
[18] = dose: 6.25 mg/kg/injection, schedule: Q01DX009 (ip), vehicle: saline with Tween-80

## CCCC[P+](CCCC)(CCCC)CCN1C(=O)c2ccccc2C1=O
dose: 0.78 mg/kg/injection, schedule: Q01DX009 (ip), vehicle: water
  T/C: 92 % of control
dose: 1.56 mg/kg/injection, schedule: Q01DX009 (ip), vehicle: water
  T/C: 93 % of control
dose: 3.13 mg/kg/injection, schedule: Q01DX009 (ip), vehicle: water
  T/C: 106 % of control
dose: 6.25 mg/kg/injection, schedule: Q01DX009 (ip), vehicle: water
  T/C: 99 % of control
dose: 12.5 mg/kg/injection, schedule: Q01DX009 (ip), vehicle: water
  T/C: 100 % of control
dose: 25.0 mg/kg/injection, schedule: Q01DX009 (ip), vehicle: water
  T/C: 100 % of control and 101 % of control
dose: 50.0 mg/kg/injection, schedule: Q01DX009 (ip), vehicle: water
  T/C: 106 % of control
dose: 100.0 mg/kg/injection, schedule: Q01DX009 (ip), vehicle: water
  T/C: 116 % of control

## CCCCCCCCCCC(=O)CCCC
[1]
  T/C: 109 % of control
[2]
  T/C: 100 % of control
[3]
  T/C: 104 % of control
dose: 200.0 mg/kg/injection, schedule: Q04DX003 (ip), vehicle: saline with Tween-80
  T/C: 95 % of control
dose: 400.0 mg/kg/injection, schedule: Q01DX009 (ip), vehicle: saline with Tween-80
  T/C: 109 % of control
dose: 400.0 mg/kg/injection, schedule: Q04DX003 (ip), vehicle: saline with Tween-80
  T/C: 95 % of control

## COc1cccc(OC)c1SSCCN
dose: 100.0 mg/kg/injection, schedule: Q04DX002 (ip), vehicle: suspension in saline
  T/C: 107 % of control
dose: 200.0 mg/kg/injection, schedule: Q04DX002 (ip), vehicle: suspension in saline
  T/C: 111 % of control

## O=C(O)/C(=C\c1c(Cl)[nH]c2ccccc12)NC(=O)c1ccccc1
[4]
  T/C: 103 % of control
[5]
  T/C: 99 % of control
[6]
  T/C: 98 % of control

## COc1cc2c(cc1C(C)c1ccc(F)cc1)OCO2 (stereo not drawn)
[7]
  T/C: 98 % of control
[8]
  T/C: 100 % of control
[9]
  T/C: 107 % of control

## CCCSc1nc2c(N)nc(-c3ccccc3)nc2nc1N
[10]
  T/C: 108 % of control
[1]
  T/C: 105 % of control
[3]
  T/C: 105 % of control

## Cc1ccc(Cl)c(C(O)(C(F)(F)F)C(F)(F)F)c1
dose: 100.0 mg/kg/injection, schedule: Q01DX001 (ip), vehicle: other
  T/C: 95 % of control
[4]
  T/C: 108 % of control
dose: 200.0 mg/kg/injection, schedule: Q01DX001 (ip), vehicle: other
  T/C: 92 % of control
[5]
  T/C: 108 % of control
[6]
  T/C: 93 % of control

## OCCN(CCO)C1c2ccccc2-c2ccccc21
[7]
  T/C: 98 % of control
[8]
  T/C: 89 % of control
[9]
  T/C: 90 % of control

## COc1c(N)c2c(c([N+](=O)[O-])c1OC)C(=O)OC2
[11]
  T/C: 103 % of control
[12]
  T/C: 93 % of control
[13]
  T/C: 97 % of control

## COc1ccc2c(c1)c(-c1cc3ccccc3oc1=O)cn2C(=O)c1ccc(Cl)cc1
[14]
  T/C: 105 % of control
[15]
  T/C: 102 % of control
[16]
  T/C: 106 % of control

## COc1cc2ccnc(C=O)c2cc1OC
[17]
  T/C: 110 % of control
[10]
  T/C: 110 % of control
[1]
  T/C: 107 % of control

## CSC(=S)N/N=C(\C)Cc1ccccn1
dose: 12.5 mg/kg/injection, schedule: Q01DX005 (ip), vehicle: saline with Tween-80
  T/C: 102 % of control
dose: 25.0 mg/kg/injection, schedule: Q01DX005 (ip), vehicle: saline with Tween-80
  T/C: 100 % of control
[7]
  T/C: 101 % of control and 95 % of control

## C#CCOc1ccccc1/C(Cl)=N/Nc1ccc([N+](=O)[O-])cc1[N+](=O)[O-]
[18]
  T/C: 97 % of control
[17]
  T/C: 90 % of control

## COc1cc(C2c3cc4c(cc3OC(C)(O)C2C(C)=O)OCO4)cc(OC)c1OC (stereo not drawn)
[14]
  T/C: 87 % of control
[15]
  T/C: 94 % of control
[16]
  T/C: 100 % of control

## COc1ccc(C(=O)c2ccccc2)c(OC(=O)Nc2c(Cl)cccc2Cl)c1
[14]
  T/C: 93 % of control
[15]
  T/C: 107 % of control
[16]
  T/C: 88 % of control

## NC(Cc1cc(I)c(O)c(I)c1)C(=O)O (stereo not drawn)
[10]
  T/C: 110 % of control
[1]
  T/C: 108 % of control
[3]
  T/C: 88 % of control

## COC1=NC=CC=CC1
[18]
  T/C: 103 % of control
dose: 12.5 mg/kg/injection, schedule: Q01DX009 (ip), vehicle: saline with Tween-80
  T/C: 111 % of control
[17]
  T/C: 107 % of control

## COC(=O)CC1C2(C)C3=C(C)C(c4ccoc4)CC3OC2C2OC(=O)C3(C)C=CC(=O)C1(C)C23 (stereo not drawn)
dose: 1.25 mg/kg/injection, schedule: Q01DX009 (ip), vehicle: Klucel (hydroxypropylcellulose) (HPC)
  T/C: 91 % of control
dose: 2.5 mg/kg/injection, schedule: Q01DX009 (ip), vehicle: Klucel (hydroxypropylcellulose) (HPC)
  T/C: 105 % of control
dose: 5.0 mg/kg/injection, schedule: Q01DX009 (ip), vehicle: Klucel (hydroxypropylcellulose) (HPC)
  T/C: 86 % of control
dose: 10.0 mg/kg/injection, schedule: Q01DX009 (ip), vehicle: Klucel (hydroxypropylcellulose) (HPC)
  T/C: 86 % of control
dose: 20.0 mg/kg/injection, schedule: Q01DX009 (ip), vehicle: Klucel (hydroxypropylcellulose) (HPC)
  T/C: 102 % of control

## Clc1ncccc1SSc1cccnc1Cl
[10]
  T/C: 104 % of control
[1]
  T/C: 100 % of control
[3]
  T/C: 104 % of control

## CC(C)(C)C(=O)CP(=O)(O)O
dose: 50.0 mg/kg/injection, schedule: Q01DX009 (ip), vehicle: saline
  T/C: 95 % of control and 100 % of control
dose: 100.0 mg/kg/injection, schedule: Q01DX009 (ip), vehicle: saline
  T/C: 104 % of control and 97 % of control
dose: 200.0 mg/kg/injection, schedule: Q01DX009 (ip), vehicle: saline
  T/C: 95 % of control and 101 % of control

## Cc1cc(C2C(=O)c3ccccc3C2=O)cc(C(C)(C)C)c1O
dose: 100.0 mg/kg/injection, schedule: Q04DX002 (ip), vehicle: saline
  T/C: 115 % of control
dose: 200.0 mg/kg/injection, schedule: Q04DX002 (ip), vehicle: saline
  T/C: 107 % of control
dose: 400.0 mg/kg/injection, schedule: Q04DX002 (ip), vehicle: saline
  T/C: 96 % of control

## CC1(C)CC(Nc2ccccc2)=CC(=S)N1
[11]
  T/C: 100 % of control
[12]
  T/C: 103 % of control
[13]
  T/C: 100 % of control

## COc1c(OC2OC(CO)C(O)C(O)C2O)cc2occ(-c3ccc4c(c3)OCO4)c(=O)c2c1O (stereo not drawn)
dose: 4.0 mg/kg/injection, schedule: Q01DX005 (ip), vehicle: saline with Tween-80
  T/C: 94 % of control
dose: 8.0 mg/kg/injection, schedule: Q01DX005 (ip), vehicle: saline with Tween-80
  T/C: 101 % of control
dose: 16.0 mg/kg/injection, schedule: Q01DX005 (ip), vehicle: saline with Tween-80
  T/C: 101 % of control
dose: 32.0 mg/kg/injection, schedule: Q01DX005 (ip), vehicle: saline with Tween-80
  T/C: 95 % of control

## CC(C)(C)N(Cc1ccccc1)C(O)Cc1c(-c2ccccc2)c(-c2ccccc2)c2n1CCC2 (stereo not drawn)
dose: 60.0 mg/kg/injection, schedule: Q01DX005 (ip), vehicle: Klucel (hydroxypropylcellulose) (HPC)
  T/C: 89 % of control
dose: 120.0 mg/kg/injection, schedule: Q01DX005 (ip), vehicle: Klucel (hydroxypropylcellulose) (HPC)
  T/C: 88 % of control

## COc1ccc2c(c1)nc1c([n+]2/N=C(\[O-])CCN(C)C)-c2cccc3cccc-1c23
dose: 50.0 mg/kg/injection, schedule: Q01DX009 (ip), vehicle: Klucel (hydroxypropylcellulose) (HPC)
  T/C: 110 % of control
dose: 100.0 mg/kg/injection, schedule: Q01DX009 (ip), vehicle: Klucel (hydroxypropylcellulose) (HPC)
  T/C: 111 % of control
dose: 200.0 mg/kg/injection, schedule: Q01DX009 (ip), vehicle: Klucel (hydroxypropylcellulose) (HPC)
  T/C: 116 % of control

## Nc1nc2ccc(CNc3ccc(C(=O)NC(CCC(=O)O)C(=O)O)cc3)nc2c(=O)[nH]1 (stereo not drawn)
dose: 50.0 mg/kg/injection, schedule: Q04DX003 (ip), vehicle: saline with Tween-80
  T/C: 102 % of control
[2]
  T/C: 155 % of control

## CCOC(=O)Nc1cc(Cl)c2[nH]c(=O)[nH]c2n1
dose: 12.5 mg/kg/injection, schedule: Q01DX009 (ip), vehicle: other
  T/C: 103 % of control
dose: 25.0 mg/kg/injection, schedule: Q01DX009 (ip), vehicle: other
  T/C: 106 % of control
dose: 50.0 mg/kg/injection, schedule: Q01DX009 (ip), vehicle: other
  T/C: 100 % of control
dose: 100.0 mg/kg/injection, schedule: Q01DX009 (ip), vehicle: other
  T/C: 104 % of control
dose: 200.0 mg/kg/injection, schedule: Q01DX009 (ip), vehicle: other
  T/C: 100 % of control

## CCCCCCCCCCCCCCC(O)C(=O)O (stereo not drawn)
[3]
  T/C: 89 % of control
